Here are results for one compound from patent US20090191253A2 (Creabilis Therapeutics S.P.A., priority 2005, published 2009).

As a reminder, the inhibition is the drop in the measured response relative to a control, in per cent. What is called Kd is a measure of binding affinity in units of concentration.

Experiment [1] has as its target T1, TNK1 (Homo sapiens, UniProt Q13470).
T1 construct: Kinase domain (KD) of human TNK [110-394 amino; made in house; host or cells: baculovirus expression system
As to the kind of experiment: Kinase inhibition profiling TNK1 (ELISA). Format: biochemical. In general terms: ELISA stands for enzyme-linked immunosorbent assay.
Experimental: (§2) In particular, the target kinases were Tyrosine kinases and Serine/Threonine kinases.
(§3) Each test compound was weighed and dissolved in DMSO to make 1 mM stock solution. The stock solution was diluted with DMSO to achieve 20 μM. The compound solution was diluted with the assay buffer to achieve 0.8 μM.

Experiment [2] deals with T2, CSK (Homo sapiens, UniProt P41240).
T2 construct: His (N, cleaved yes); made in house; host or cells: baculovirus expression system
Put plainly: Kinase inhibition profiling CSK (ELISA). Format: biochemical.
Experimental: as §3

The target of experiment [3] is T3, HER4 (Homo sapiens, UniProt Q15303).
T3 construct: Cytoplasmic domain of human HER4 [676-1308 amino; made in house; host or cells: baculovirus expression system
Put plainly: Kinase inhibition profiling HER4 (ELISA). Format: biochemical.
Experimental: as §3

In experiment [4] the target is T4, FAK (Homo sapiens, UniProt Q05397).
T4 construct: made in house; host or cells: baculovirus expression system
Put plainly: Kinase inhibition profiling FAK (ELISA). Type of experiment: biochemical.
Experimental: as §3

The target of experiment [5] is T5, IGF1R (Homo sapiens, UniProt P08069).
T5 construct: Cytoplasmic domain of human IGF1R [959-1367 amino; made in house; host or cells: baculovirus expression system
T5 sequence (P08069 959-1367): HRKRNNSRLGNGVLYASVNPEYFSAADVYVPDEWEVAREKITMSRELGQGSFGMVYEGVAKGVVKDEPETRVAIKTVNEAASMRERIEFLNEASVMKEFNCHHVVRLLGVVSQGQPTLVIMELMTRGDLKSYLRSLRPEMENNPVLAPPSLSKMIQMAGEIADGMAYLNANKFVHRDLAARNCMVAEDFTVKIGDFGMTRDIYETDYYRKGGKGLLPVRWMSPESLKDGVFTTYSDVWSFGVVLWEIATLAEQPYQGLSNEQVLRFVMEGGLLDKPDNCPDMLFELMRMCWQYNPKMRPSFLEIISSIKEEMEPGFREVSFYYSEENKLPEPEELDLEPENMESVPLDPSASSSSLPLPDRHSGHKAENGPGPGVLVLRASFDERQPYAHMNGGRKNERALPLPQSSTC
Put plainly: Kinase inhibition profiling IGF1R (ELISA). Format: biochemical.
Experimental: as §3

Experiment [6] has as its target T6, INSR (Homo sapiens, UniProt P06213).
T6 construct: Kinase domain (KD) of human INSR [1005-1310 amino; His (N, cleaved yes); made in house; host or cells: baculovirus expression system
Put plainly: Kinase inhibition profiling INSR (ELISA). Type of experiment: biochemical.
Experimental: as §3

Experiment [7] addresses T7, JAK1 (Homo sapiens, UniProt P23458).
T7 construct: Kinase domain (KD) of human JAK1 [838-1142 amino; made in house; host or cells: baculovirus expression system
As to the kind of experiment: Kinase inhibition profiling JAK1 (ELISA). Type of experiment: biochemical.
Experimental: as §3

Experiment [8] addresses T8, JAK3 (Homo sapiens, UniProt P52333).
T8 construct: Kinase domain (KD) of human JAK3 [795-1124 amino; made in house; host or cells: baculovirus expression system
As to the kind of experiment: Kinase inhibition profiling JAK3 (ELISA). Also: ATP 5 µM. Type of experiment: biochemical.
Experimental: as §3

Experiment [9] concerns the target T9, TYK2 (Homo sapiens, UniProt P29597).
T9 construct: Kinase domain (KD) of human TYK2 [871-1187 amino; made in house; host or cells: baculovirus expression system
As to the kind of experiment: Kinase inhibition profiling TYK2 (ELISA). Type of experiment: biochemical.
Experimental: as §3

Experiment [10] concerns the target T10, BLK (Homo sapiens, UniProt P51451).
T10 construct: made in house; host or cells: baculovirus expression system
As to the kind of experiment: Kinase inhibition profiling BLK (ELISA). Format: biochemical.
Experimental: as §3

For experiment [11], the target named is T11, BRK (Homo sapiens, UniProt Q13882).
T11 construct: made in house; host or cells: baculovirus expression system
T11 sequence (Q13882 2-450): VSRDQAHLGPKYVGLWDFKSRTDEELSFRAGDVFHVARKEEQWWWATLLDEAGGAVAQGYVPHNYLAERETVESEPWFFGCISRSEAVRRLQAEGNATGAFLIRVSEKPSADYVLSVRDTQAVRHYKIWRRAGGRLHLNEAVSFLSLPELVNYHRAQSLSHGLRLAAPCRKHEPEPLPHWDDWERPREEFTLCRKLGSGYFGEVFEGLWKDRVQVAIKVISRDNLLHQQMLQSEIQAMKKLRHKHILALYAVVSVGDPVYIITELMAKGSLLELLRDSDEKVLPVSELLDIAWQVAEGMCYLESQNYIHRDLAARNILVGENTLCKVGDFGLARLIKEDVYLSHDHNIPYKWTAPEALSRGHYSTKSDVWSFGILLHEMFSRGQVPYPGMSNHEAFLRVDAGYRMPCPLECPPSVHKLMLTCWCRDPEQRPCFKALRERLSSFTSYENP
As to the kind of experiment: Kinase inhibition profiling BRK (ELISA). Format: biochemical.
Experimental: as §2, §3

Experiment [12] deals with T12, FYN (Homo sapiens, UniProt P06241).
T12 construct: made in house; host or cells: baculovirus expression system
As to the kind of experiment: Kinase inhibition profiling FYN (ELISA). Also: ATP 20 µM. Type of experiment: biochemical.
Experimental: as §2, §3

Experiment [13] deals with T13, HCK (Homo sapiens, UniProt P08631).
T13 construct: made in house; host or cells: baculovirus expression system
As to the kind of experiment: Kinase inhibition profiling HCK (ELISA). Also: ATP 20 µM. Format: biochemical.
Experimental: as §2, §3

Experiment [14] has as its target T14, KDR (Homo sapiens, UniProt P35968).
T14 construct: Cytoplasmic domain of human KDR [790-1356 amino; made in house; host or cells: baculovirus expression system
Put plainly: Kinase inhibition profiling KDR (ELISA). Format: biochemical.
Experimental: as §2, §3

In experiment [15] the target is T15, PKCα (Homo sapiens, UniProt P17252).
T15 construct: made in house; host or cells: baculovirus expression system
Put plainly: Kinase inhibition profiling PKCα (IMAP). Type of experiment: biochemical.
Experimental: as §3

Experiment [16] addresses T16, CaMK2α (Homo sapiens, UniProt Q9UQM7).
T16 construct: His (N); made in house; host or cells: baculovirus expression system
Put plainly: Kinase inhibition profiling CaMK2α (IMAP). Format: biochemical.
Experimental: as §2, §3

For experiment [17], the target named is T17, CDK2/cyclinA (Homo sapiens, UniProt P24941).
T17 construct: His (N); made in house; host or cells: baculovirus expression system
Put plainly: Kinase inhibition profiling CDK2/cyclinA (IMAP). Type of experiment: biochemical.
Experimental: as §3

Experiment [18] deals with T18, Erk1 (Homo sapiens, UniProt P27361).
T18 construct: Human Erk1 containing 379 amino acids was expressed; His (N); made in house; host or cells: E. coli
T18 sequence (P27361 whole entry): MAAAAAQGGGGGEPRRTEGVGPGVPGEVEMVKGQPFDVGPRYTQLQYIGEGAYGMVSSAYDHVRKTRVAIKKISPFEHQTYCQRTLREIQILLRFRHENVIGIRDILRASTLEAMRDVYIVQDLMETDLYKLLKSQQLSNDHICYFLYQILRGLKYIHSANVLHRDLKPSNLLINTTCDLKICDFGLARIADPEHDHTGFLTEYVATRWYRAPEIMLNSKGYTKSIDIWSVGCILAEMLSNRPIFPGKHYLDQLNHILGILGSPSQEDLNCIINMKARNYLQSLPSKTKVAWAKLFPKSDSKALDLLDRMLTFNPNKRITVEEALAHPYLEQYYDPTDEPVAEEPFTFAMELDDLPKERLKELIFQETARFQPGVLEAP
Put plainly: Kinase inhibition profiling Erk1 (IMAP). Format: biochemical.
Experimental: as §3

Experiment [19] addresses T19, JNK2 (Homo sapiens, UniProt P45984).
T19 construct: Human JNK2 containing 424 amino acids was expressed; His (C); made in house; host or cells: E. coli
Put plainly: Kinase inhibition profiling JNK2 (ELISA). Also: ATP 5 µM. Type of experiment: biochemical.
Experimental: as §3

Experiment [20] concerns the target T20, p38α (Homo sapiens, UniProt Q16539).
T20 construct: GST (N); made in house; host or cells: E. coli
Put plainly: Kinase inhibition profiling p38α (IMAP). Format: biochemical.
Experimental: as §3

For experiment [21], the target named is T21, MAP2K7 (Homo sapiens, UniProt O14733, S271E/S277E/T275E).
T21 construct: T275E, S277E] derived from wild type [419 amino acids; GST (N); made in house; host or cells: E. coli
As to the kind of experiment: Kinase inhibition profiling MAP2K7 (AlphaScreen, cascade). Type of experiment: biochemical. The text has this: AlphaScreen Assay [drawing 4]
In general terms: In Alpha technology, singlet oxygen from a donor bead excites a nearby acceptor bead.

For experiment [22], the system named is bovine aorta smooth muscle cells (BASMC). As to the kind of experiment: Chemotaxis assay, HMGB1-induced migration (modified Boyden chambers). Particulars: K-252a 3, 10, 30, 100 nM; HMGB-1 25 ng/ml; overnight migration. Type of experiment: cell-based. How it is done: (§1) Chemotaxis assays were performed using a well known and validated protocol (1). Modified Boyden chambers were used with filters having 5-8 μm pore size and treated with collagen I (100 μg/ml in 0.5 M acetic acid) and fibronectin (10 μg/ml, Roche). BASMC (bovine aorta smooth muscle cells) were cultured in serum-free DMEM and a sample of 20,000-40,000 cells was added to the upper well of a Boyden chamber. […] Overnight cell migration was allowed at 37+/−0.5° C., then cells were scraped off and filters were fixed in methanol and stained in a solution of 10% crystal violet in 20% methanol. All experiments were performed at least twice in triplicate. […] Random cell migration, i.e. migration in the absence of chemoattractant, was given the arbitrary value of 100%. Statistical analysis was performed using Student's t test for pairwise comparisons of treatment, or an ANOVA model for the evaluation of treatments with increasing concentrations of a reagent.

Experiment [23] shares this test system. As to the kind of experiment: Chemotaxis assay, fMLP-induced migration (modified Boyden chambers). The settings on record: K-252a 3, 10, 30, 100 nM; fMLP 0.1 μM; overnight migration. Format: cell-based. As to the method: as §1
In experiment [24] the target is T22, HMGB1 (Homo sapiens, UniProt P09429).
T22 construct: host or cells: bacteria (inferred from the mention of bacterial contaminants)
T22 sequence (P09429 whole entry, species assumed): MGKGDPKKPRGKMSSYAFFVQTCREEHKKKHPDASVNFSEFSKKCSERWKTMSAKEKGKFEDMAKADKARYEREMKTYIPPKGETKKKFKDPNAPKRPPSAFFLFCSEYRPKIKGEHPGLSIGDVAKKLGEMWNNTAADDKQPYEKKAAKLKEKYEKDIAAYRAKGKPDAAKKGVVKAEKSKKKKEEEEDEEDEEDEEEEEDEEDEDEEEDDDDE
Put plainly: Protein binding experiments by circular dichroism (CD). Particulars: assuming 1:1 stoichiometry binding. The text has this:
All CD spectra were collected on a Jasco J710 spectropolarimeter equipped with a NesLab RTE111 thermal controller unity, using a quartz cylindrical cuvette with a 1 cm path length (Jasco). A scan speed of 20 nm/min, a bandwidth of o 1 nm, and a resolution of 1 nm was always used.
The spectra are heavily disturbed more than likely due to DMF.
For orientation: CD spectra are sensitive to the conformation of chiral molecules.

T7 sequence (P23458 850-1154): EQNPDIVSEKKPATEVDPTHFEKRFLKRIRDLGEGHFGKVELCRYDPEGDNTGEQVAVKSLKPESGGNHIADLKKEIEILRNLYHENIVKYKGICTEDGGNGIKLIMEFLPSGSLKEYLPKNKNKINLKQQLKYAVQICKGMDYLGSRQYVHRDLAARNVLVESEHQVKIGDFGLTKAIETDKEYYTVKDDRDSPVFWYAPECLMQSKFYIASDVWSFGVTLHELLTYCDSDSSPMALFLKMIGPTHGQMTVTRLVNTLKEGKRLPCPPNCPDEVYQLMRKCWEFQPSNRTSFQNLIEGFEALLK
T20 sequence (Q16539 9-352): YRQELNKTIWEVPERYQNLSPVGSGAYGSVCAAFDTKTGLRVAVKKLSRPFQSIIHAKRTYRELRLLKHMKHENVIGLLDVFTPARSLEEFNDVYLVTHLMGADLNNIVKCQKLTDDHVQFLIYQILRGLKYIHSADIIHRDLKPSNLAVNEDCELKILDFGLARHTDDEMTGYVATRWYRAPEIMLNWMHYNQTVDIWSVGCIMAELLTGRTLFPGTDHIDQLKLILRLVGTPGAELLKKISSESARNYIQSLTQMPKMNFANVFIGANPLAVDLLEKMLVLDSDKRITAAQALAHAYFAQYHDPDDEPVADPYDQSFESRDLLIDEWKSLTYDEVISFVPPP
T10 sequence (P51451 whole entry): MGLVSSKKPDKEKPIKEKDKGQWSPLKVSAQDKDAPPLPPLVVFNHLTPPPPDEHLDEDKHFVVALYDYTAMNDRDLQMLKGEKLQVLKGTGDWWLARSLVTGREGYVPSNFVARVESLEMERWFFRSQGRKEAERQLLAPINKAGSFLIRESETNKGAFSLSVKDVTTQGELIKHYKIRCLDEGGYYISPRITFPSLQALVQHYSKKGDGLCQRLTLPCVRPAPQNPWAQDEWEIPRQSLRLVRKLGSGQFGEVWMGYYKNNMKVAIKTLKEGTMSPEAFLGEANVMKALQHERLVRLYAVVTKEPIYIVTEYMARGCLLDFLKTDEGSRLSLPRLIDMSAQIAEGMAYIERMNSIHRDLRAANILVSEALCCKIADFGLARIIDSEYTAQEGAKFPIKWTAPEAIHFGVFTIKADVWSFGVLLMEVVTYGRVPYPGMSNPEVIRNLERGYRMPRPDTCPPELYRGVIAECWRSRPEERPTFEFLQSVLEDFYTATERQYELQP
T19 sequence (P45984 whole entry): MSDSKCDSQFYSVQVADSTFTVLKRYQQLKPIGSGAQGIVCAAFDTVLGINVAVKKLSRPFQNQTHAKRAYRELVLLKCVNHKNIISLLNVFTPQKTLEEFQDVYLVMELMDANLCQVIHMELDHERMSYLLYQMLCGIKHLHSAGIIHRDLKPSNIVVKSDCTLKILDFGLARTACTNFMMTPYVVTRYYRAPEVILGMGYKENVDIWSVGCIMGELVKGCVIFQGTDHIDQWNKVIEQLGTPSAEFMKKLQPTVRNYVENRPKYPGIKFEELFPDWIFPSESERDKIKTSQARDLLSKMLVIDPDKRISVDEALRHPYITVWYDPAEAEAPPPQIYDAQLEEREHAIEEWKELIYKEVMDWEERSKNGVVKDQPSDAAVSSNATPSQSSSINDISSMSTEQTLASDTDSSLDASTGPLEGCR
T14 sequence (P35968 790-1356): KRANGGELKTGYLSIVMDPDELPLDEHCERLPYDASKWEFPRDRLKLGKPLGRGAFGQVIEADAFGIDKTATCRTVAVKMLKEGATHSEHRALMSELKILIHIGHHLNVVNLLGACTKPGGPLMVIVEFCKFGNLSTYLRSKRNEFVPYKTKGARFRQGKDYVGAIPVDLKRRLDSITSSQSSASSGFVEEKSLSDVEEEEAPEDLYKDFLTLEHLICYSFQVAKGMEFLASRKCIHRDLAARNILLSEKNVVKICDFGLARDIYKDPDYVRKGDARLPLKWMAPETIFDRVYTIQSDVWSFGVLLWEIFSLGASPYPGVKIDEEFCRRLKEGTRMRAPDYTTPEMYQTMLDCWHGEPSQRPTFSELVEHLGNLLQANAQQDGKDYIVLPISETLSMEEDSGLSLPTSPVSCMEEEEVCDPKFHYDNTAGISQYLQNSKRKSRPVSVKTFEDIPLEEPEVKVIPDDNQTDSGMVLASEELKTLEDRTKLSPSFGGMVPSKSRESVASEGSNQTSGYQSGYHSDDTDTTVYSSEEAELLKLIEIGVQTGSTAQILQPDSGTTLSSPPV
T1 sequence (Q13470 110-394): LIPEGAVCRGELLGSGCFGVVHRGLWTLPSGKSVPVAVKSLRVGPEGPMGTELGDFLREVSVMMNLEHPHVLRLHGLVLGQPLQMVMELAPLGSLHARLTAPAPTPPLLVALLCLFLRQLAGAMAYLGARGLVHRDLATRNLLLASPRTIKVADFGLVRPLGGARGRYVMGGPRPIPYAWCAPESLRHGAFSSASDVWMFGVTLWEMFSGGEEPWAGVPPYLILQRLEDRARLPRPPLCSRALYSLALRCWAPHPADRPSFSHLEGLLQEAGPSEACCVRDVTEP
T9 sequence (P29597 871-1187): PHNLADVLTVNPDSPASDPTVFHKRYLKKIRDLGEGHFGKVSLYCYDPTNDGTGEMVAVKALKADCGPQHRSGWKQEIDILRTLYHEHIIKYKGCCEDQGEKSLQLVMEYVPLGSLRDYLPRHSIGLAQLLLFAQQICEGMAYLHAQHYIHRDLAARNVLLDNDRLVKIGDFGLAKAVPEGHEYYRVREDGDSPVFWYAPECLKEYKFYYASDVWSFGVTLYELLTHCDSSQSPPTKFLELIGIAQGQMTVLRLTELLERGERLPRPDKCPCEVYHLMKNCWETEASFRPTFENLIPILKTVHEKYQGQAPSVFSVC
T8 sequence (P52333 795-1124): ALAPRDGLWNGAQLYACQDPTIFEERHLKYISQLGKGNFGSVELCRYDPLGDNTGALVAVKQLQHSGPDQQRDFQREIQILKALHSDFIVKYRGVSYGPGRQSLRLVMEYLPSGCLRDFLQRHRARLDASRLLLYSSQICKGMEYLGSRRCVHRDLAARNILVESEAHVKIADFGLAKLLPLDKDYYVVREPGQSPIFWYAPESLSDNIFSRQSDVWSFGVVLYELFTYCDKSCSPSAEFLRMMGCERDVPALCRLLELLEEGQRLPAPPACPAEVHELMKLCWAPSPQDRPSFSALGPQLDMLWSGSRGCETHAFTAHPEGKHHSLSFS
T6 sequence (P06213 1005-1310): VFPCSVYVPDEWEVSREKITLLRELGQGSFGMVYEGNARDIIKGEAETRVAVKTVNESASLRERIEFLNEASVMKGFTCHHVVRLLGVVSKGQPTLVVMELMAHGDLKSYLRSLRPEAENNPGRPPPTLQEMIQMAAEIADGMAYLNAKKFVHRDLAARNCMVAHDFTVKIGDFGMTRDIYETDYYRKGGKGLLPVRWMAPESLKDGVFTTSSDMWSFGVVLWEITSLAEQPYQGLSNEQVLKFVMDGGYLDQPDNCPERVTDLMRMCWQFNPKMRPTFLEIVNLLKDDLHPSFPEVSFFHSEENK

Turning to `COC(=O)[C@]1(O)CC2O[C@@]1(C)n1c3ccccc3c3c4c(c5c6ccccc6n2c5c31)C(=O)NC4` [K-252a], the inhibition at 0.2 µM in [1] stood at 94.8%; in experiment [2], 43%; in [3], 39.4%; in experiment [4] it was 53.5%; in experiment [5], 40.6%; in experiment [6], 38%. Further, the inhibition at 0.2 µM amounted to 83.1% in experiment [7]; 100% in [8]; 98.1% in experiment [9]; 83.5% in [10]; 35.8% in experiment [11]; 67.2% in experiment [12]. Besides, the inhibition at 0.2 µM in experiment [13] came to 68.2%; in experiment [14], 62.9%; in [15], 64.4%; in experiment [16] it was 83.9%; in [17], 75.5%; in experiment [18] it was 32%. The values for the inhibition at 0.2 µM in [19], in [20] and in experiment [21] were 91.4%, -1.5% and 68.2%, respectively. Besides, the “HMGB1-induced BASMC cell migration” value in [22] was “actively and concentration-dependently (in a nanomolar range) antagonizes HMGB1-induced BASMC cell migration”. Further, the “cell migration induced by fMLP” value in [23] is given as “does not interfere with cell migration induced by fMLP, whatever the concentration tested”. For the same compound, the Kd in experiment [24] was around 2 µM.
